Patent US5792467A, “Repellent compositions containing aromatic aldehydes” (Proguard, Inc., priority 1996, dated 1998)
“Also recorded” adds a separate entry of the source. Read-outs that look alike come from different tables or passages of the source.

Experiments:
[1] = system: Aedes Aegypsi (yellow fever mosquito); experiment: Median Effective Dose to repel Aedes aegypti, mosquito blood feeder; assay type: in vivo; settings: Bandruche membrane, 37°, acetone formulation
Procedure: Median Effective Dose (ED50) is defined as the amount of chemical required to repel 50% of a target pest. […] The test system used was a mosquito blood feeder, which includes a constant temperature water circulator to warm the blood in the feeder, and the test cage. The blood was maintained at 37°. The blood feeder has five circular blood reservoirs, each of which is filled with outdated blood obtained from the Walter Reed Army Medical Center and certified safe according to Blood Bank testing procedures. The blood was replenished with adenosine triphosphate (ATP), without which the mosquitoes will not feed freely. The blood-filledreservoirs were covered with a Bandruche membrane (a standard membrane barrier). […] DEET was used as a positive control in a similar manner. A negative control formulation (water only) also was tested. The mosquitoes were given access to the blood reservoirs on a "free feeding" basis by means of a sliding door in the bottom of the test cage.

[2] = 25° C.; cited from earlier work
[3] = 33% DEET; cited from earlier work
[4] = cited from earlier work
[5] = system: yellow fever mosquito (Aedes aegypti (L)); experiment: Direct skin application, protection time against yellow fever mosquito; assay type: in vivo; settings: 1 ml 100% HCA on forearm
Procedure: (§1) A glove was worn to protect the untreated hand while the treated forearm was exposed in a cage containing a high number (2,000-4,000) of unfed mosquitoes for 3 minutes at intervals of approximately 30 minutes until two bites were received (two bites in one test period or one bite in each of two consecutive test periods). The time interval between application and when two bites were received was defined as the "protection time." The repellent classes based on protection time (minutes) are listed below: […]

[6] = system: malaria mosquito (Anopheles quadrimaculatus Say); experiment: Direct skin application, protection time against malaria mosquito; assay type: in vivo; settings: 1 ml 100% HCA on forearm
Procedure: as §1

yellow fever mosquito = experiment: Application to clothing, treated stocking against yellow fever mosquito; assay type: in vivo, Aedes aegypti; settings: cotton stocking, 3.3 g/ft^2
Procedure: HCA also was evaluated on treated cloth against the yellow fever mosquito. In these tests, women's mercerized-cotton stockings were used. […] The stocking was spread on a rack to dry and then hung indoors on a line. The first tests were done 24 hours after treatment. The treated stocking was drawn over the arm, with the treated portion midway on the forearm. The untreated hand was protected with a glove and the stocking-covered arm was exposed for one minute in a testcage. If 5 bites were received, the treatment was considered ineffective. If less than 5 bites were received; the exposures were continued daily until the 14th day and at weekly or biweekly intervals thereafter.

human subjects [7] = settings: 12% in petrolatum, 48 hour closed patch; cited from earlier work
human subjects [8] = settings: 20% in diethylphthalate, 100 human subjects; cited from earlier work
human = settings: cited from earlier work
[9] = system: eczema and dermatitis patients; settings: human, in vivo; cited from earlier work
[10] = system: patients sensitive to 2% cinnamaldehyde; settings: human, in vivo; cited from earlier work
rats = settings: rat, in vivo; cited from earlier work
[11] = cited from earlier work; remark: listed apart in the source
[12] = system: grape phylloxera (Daktulosphaira vitifoliae Fitch); experiment: Treatment of grapevine leaves for control of root forms of grape phylloxera; assay type: in vivo; settings: for Number of Phylloxera on 6 root sections, Eggs: water 52; for Number of Phylloxera on 6 root sections, 1st instar / Number of Phylloxera on 6 root sections, 2nd instar / Number of Phylloxera on 6 root sections, 3rd instar: water 7; for Number of Phylloxera on 6 root sections, 4th instar: water 13; for Number of Phylloxera on 6 root sections, Adults: water 16
Procedure: The root form of grape phylloxera (Daktulosphaira vitifoliae Fitch) is arguably the most devastating grape insect world wide. In this experiment, cinnamic aldehyde formulated with 1% Tween 80 was tested for ability to control phylloxera. One year old potted V. vinifera cultivar merlot plants were used that had been obtained from Foundation Plant Material Service, University of California, Davis. The plants were potted in 10 cm diameter ports and were infested with phylloxera 5 weeks prior to treatment. At the time of spraying, plant pots were placed in a plastic bag so that chemical runoff from the leaf sprays would not drip into the soil. Spray was applied to runoff with a household 1 liter-capacity plastic spray bottle. Plants were allowed to air dry outside and then replaced in the greenhouse. At intervals thereafter, the roots were separated from the potting mix and total phylloxera population estimated.
Roots from plants at 5 weeks post-treatment were excised and 6 root sections, about 3 mm diameter by 4 cm length were cleaned of infestations and used in a bioassay. For this bioassay, root sections were inoculated with 20 eggs and the roots maintained as the colonies were maintained. After 25 days, the number of individuals of each age class were counted.

[13] = system: Western Flower Thrips (Thysanoptera); experiment: Repellency to Western Flower Thrips on alfalfa inflorescence; assay type: in vivo; settings: 2% coniferyl aldehyde, 1% Tween 80
From the text: Western Flower Thrips (Thysanoptera) were collected in the field on infested alfalfa (Medicago sativa). Alfalfa inflorescence were cut then dipped in either a coniferyl aldehyde formulation (2% coniferyl aldehyde, 1% Tween 80) or a water control, then were placed in an experimental arena (approximately 9 cm in diameter by 6 centimeter in height) on a Whatman filter paper disk covering the floor of the arena. Approximately fifty (50) to sixty (60) insects were aspirated into the experimental arena which was then covered with a transparent lid. […] Repellency was determined by the relative number of individuals who successfully maintained feeding and colonization on the inflorescence over time.

For `CCN(CC)C(=O)c1cccc(C)c1` [DEET, N,N-diethyl-1,3-methylbenzamide], the “Median Effective Dose (ED50)” value [1] is given as 0.0124 mg/cm^2, the vapor pressure [2] is given as 167×10^-5 mm Hg and the duration of protection [3] is given as 10 to 14 h. The adverse effects ([4]; repeated use on skin in high concentrations) was “can cause allergic and toxic effects”.

In the case of `CCCCCCC(C=O)=Cc1ccccc1` [HCA, 2-(phenylmethylene) octanal], the “Median Effective Dose (ED50)” value [1] is reported as 0.0031 mg/cm^2, the protection time [5] is reported as 121 to 180 min and the “repellent class based on protection time” value ([5]; USDA rating scale) is reported as 3 (121-180). For the same molecule, the protection time [6] was 31 to 60 min, the “repellent class based on protection time” value ([6]; USDA rating scale) was 2 (31-60) and the “duration of effectiveness on treated cloth” value (yellow fever mosquito) was “more than 10 days”. For the same molecule, the “protection time grade on treated cloth” value (yellow fever mosquito) was 4 (effective for more than 10 days), the irritation (human subjects [7]) was “no irritation” and the “positive reactions, repeated insult patch test” value (human subjects [8]) was “no positive reactions”. The “human maximization test result” value (human; in vivo) was “negative”, the “patch test positive results out of 100” value [9] was 0 and the “patients found to be sensitive” value [10] was “none”. The “oral LD50” value (rats) was 3100 mg/kg and the “dermal LD50” value [11] was “greater than 3 g/kg”.

In the case of `O=C/C=C/c1ccccc1` [cinnamic aldehyde], the “Number of Phylloxera on 6 root sections, Eggs” value (shortened to “Number of Phylloxera … Eggs”) ([12]; 300 ppm, 1% Tween 80, roots 5 weeks post-treatment, 25 days) is reported as 16, the “Number of Phylloxera on 6 root sections, 1st instar” value (from here on “Number of Phylloxera … 1st instar”) ([12]; 300 ppm) is reported as 0 and the “Number of Phylloxera on 6 root sections, 2nd instar” value (shortened to “Number of Phylloxera … 2nd instar”) ([12]; 300 ppm) is reported as 6. For the same molecule, the “Number of Phylloxera on 6 root sections, 3rd instar” value (“Number of Phylloxera … 3rd instar” below) ([12]; 300 ppm) was 5, the “Number of Phylloxera on 6 root sections, 4th instar” value (from here on “Number of Phylloxera … 4th instar”) ([12]; 300 ppm) was 0 and the “Number of Phylloxera on 6 root sections, Adults” value (shortened to “Number of Phylloxera … Adults”) ([12]; 300 ppm) was 4. The “Number of Phylloxera … 1st instar” value ([12]; 1000 ppm) was 0, the “Number of Phylloxera … 2nd instar” value ([12]; 1000 ppm) was 1 and the “Number of Phylloxera … 3rd instar” value ([12]; 1000 ppm) was 4. The “Number of Phylloxera … 4th instar” value ([12]; 1000 ppm) was 2, the “Number of Phylloxera … Adults” value ([12]; 1000 ppm) was 1 and the “Number of Phylloxera … Eggs” value ([12]; 1000 ppm) was 2. For the same molecule, the “Number of Phylloxera … 1st instar” value ([12]; 3000 ppm) was 0, the “Number of Phylloxera … 2nd instar” value ([12]; 3000 ppm) was 2 and the “Number of Phylloxera … 3rd instar” value ([12]; 3000 ppm) was 1. For the same molecule, the “Number of Phylloxera … 4th instar” value ([12]; 3000 ppm) was 1, the “Number of Phylloxera … Adults” value ([12]; 3000 ppm) was 0 and the “Number of Phylloxera … Eggs” value ([12]; 3000 ppm) was 0. The “Number of Phylloxera … 1st instar” value ([12]; 10,000 ppm) was 0, the “Number of Phylloxera … 2nd instar” value ([12]; 10,000 ppm) was 2 and the “Number of Phylloxera … 3rd instar” value ([12]; 10,000 ppm) was 0. For the same molecule, the “Number of Phylloxera … 4th instar” value ([12]; 10,000 ppm) was 0, the “Number of Phylloxera … Adults” value ([12]; 10,000 ppm) was 0 and the “Number of Phylloxera … Eggs” value ([12]; 10,000 ppm) was 0. For the same molecule, the “duration of resistance of excised roots to phylloxera reinfestation” value ([12]; after foliage treatment) was “at least 5 weeks”, the “feeding sites after foliage treatment” value ([12]; foliage of whole plants treated) was “Vacant feeding sites were seen” and the “human maximization test result” value (human; literature data, Jimbo (1983)) was “positive reaction”.

For `COc1cc(/C=C/C=O)ccc1O` [Coniferyl Aldehyde, coniferyl aldehyde], the “Number of insects on inflorescence (colonization and feeding)” value ([13]; about 50-60 insects, 30 min, water control 22(alive)) was 2(dead), the “Description of insect behavior” value ([13]; control tranquil, normal flight, feeding) was “Irritated by treatment; also recorded: extreme agitation; also recorded: frequent flying. No” and the “Length of insect residence time on inflorescence” value ([13]; max, water control 30 minutes) was no more than 15 s.

In the case of `CCCC(O)C(CC)CO` (stereo not shown) [ethyl hexanediol], the adverse effects ([4]; basis of 1991 EPA cancellation of registrations) is listed as “possible adverse effects of the compound on fetal development”.
